Experimental data as given in patent US12005064B2, “Pharmaceutical composition comprising non-ionic surfactants” (priority 2014, dated 2024).

Assays:
Solubility in water = type: physicochemical; settings: across the whole pH range
Solubility in excipients = type: physicochemical; settings: diverse set of excipients, covering an HLB range of 1 to 20 and above

CCc1cc2c(cc1N1CCC(N3CCOCC3)CC1)C(C)(C)c1[nH]c3cc(C#N)ccc3c1C2=O [9-ethyl-6,6-dimethyl-8-(4-morpholin-4-yl-piperidin-1-yl)-11-oxo-6,11-dihydro-5H-benzo[b]carbazole-3-carbonitrile]
solubility in water (Solubility in water): practically insoluble in water | solubility in excipients (Solubility in excipients): poorly soluble
